Measured values taken from article PMC10319809, “Chronic UCN2 treatment desensitizes CRHR2 and improves insulin sensitivity” (Nature Communications, 2023).
“And” between values parts separate entries of the source, which are not always exact repeats. Identical values can stand only once. Where no end group is shown, it is not given here.

Key:
human CRHR2a (Gs) = target: T1, human CRHR2a (Gs) (Homo sapiens, UniProt Q13324); test: ebBRET effector membrane translocation assay (EMTA), Gs biosensor; assay type: cell-based; conditions: comparison of concentration response curves; Gs at lower concentration
T1 construct: expressed in transfected cells; host or cells: HEK293 cells (Millipore Sigma), transient PEI co-transfection with biosensor plasmids at Domain Therapeutics
T1 sequence (Q13324 1-411): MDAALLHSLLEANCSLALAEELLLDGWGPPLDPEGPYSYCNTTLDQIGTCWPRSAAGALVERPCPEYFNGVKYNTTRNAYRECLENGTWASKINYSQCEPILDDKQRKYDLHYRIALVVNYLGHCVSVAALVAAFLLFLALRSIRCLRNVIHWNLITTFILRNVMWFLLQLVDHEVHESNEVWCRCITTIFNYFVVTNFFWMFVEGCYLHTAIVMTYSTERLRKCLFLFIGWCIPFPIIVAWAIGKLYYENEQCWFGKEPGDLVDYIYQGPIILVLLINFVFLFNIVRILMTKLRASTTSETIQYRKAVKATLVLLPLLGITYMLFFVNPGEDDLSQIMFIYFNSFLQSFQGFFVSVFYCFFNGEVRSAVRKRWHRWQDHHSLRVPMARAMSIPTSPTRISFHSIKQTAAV
Procedure: Typically, GPCR desensitization is carried out through the recruitment of β-Arrestins or alternative G-proteins to the receptor. To identify whether these proteins are recruited to CRHR2 in response to UCN2, enhanced bystander bioluminescence resonance energy transfer (ebBRET)-based effector membrane translocation assays (EMTA) were carried out in HEK293 cells[28],[29]. Cells were co-transfected with plasmids expressing unmodified CRHR2a (alpha isoform) and one of various pathway-specific biosensors. […]
Effector membrane translocation biosensor assays (bioSensAll®) were conducted at Domain Therapeutics NA Inc. (Montreal, QC, Canada) and described in cells[28],[29]. […] Briefly, DNA and PEI were diluted separately in 150 mM NaCl, mixed and then incubated for at least 20 min at room temperature (note: salmon sperm DNA (Invitrogen) was used to adjust the total amount of DNA transfected to a final quantity of 1 ug per mL of cell culture to be transfected). During the 20-minute incubation, HEK293 cells were detached, counted and resuspended into cell culture medium to a final density of 350,000 cells per mL. […] Cells were then incubated at room temperature for 10 min and BRET readings subsequently collected with a 0.4 s integration time on a Synergy NEO plate reader (BioTek Instruments, Inc., USA; filters: 400 nm/70 nm, 515 nm/20 nm). […]

[1] = tested on: soleus and gastrocnemius muscle; test: In vivo [3H]2-deoxyglucose uptake in soleus and gastrocnemius muscle; design: species or system mouse; conditions: [3H]2DG; for 2DG Uptake, gastrocnemius muscle: individual animals (Fig. 2I); for 2DG Uptake, soleus muscle: individual animals (Fig. 2J)
Procedure: To determine 2-deoxy-glucose (2DG) uptake in soleus and gastrocnemius muscle, mice were fasted for 5 h and anaesthetized with isoflurane. […] 15 min following 2DG administration, blood was collected via intracardiac stick and soleus and gastrocnemius muscles were dissected and snap frozen in liquid nitrogen. Samples were stored at −80 C until processing. Blood was treated with BaOH2 and ZnSO4 and after centrifugation, radioactivity was determined via liquid scintillation counting (Tri-Carb 5110TR, PerkinElmer, Waltham, MA). Tissue was homogenized and mixed with water or BaOH2 and ZnSO4 to determine total and unphosphorylated 2DG content.

mice = test: Food intake studies; assay type: in vivo, mouse
Procedure: For acute studies, animals were singly housed and injected IP with saline or 1 mg/kg UCN2 (source). Food intake for the next 24 h was determined by measuring food weight in ceramic bowls within the cage. For the chronic studies, animals were singly housed and injected with Vehicle, EGFP.AAV, or UCN2.AAV. Food weight was measured in ceramic bowls every 24 h for 7 days.

[2] = UCN2 1 mg/kg IP +Insulin 0.75 IU/kg
[3] = UCN2 1 mg/kg IP +Veh (no insulin)

Question: Which “UCN2 concentration for Gs activation versus engagement of Gi and β-Arrestin” value (human CRHR2a (Gs)) does the source give for “IVLSLDVPIGLLQILLEQARARAAREQATTNARILARVGHC-NH2 (C-terminus assumed) [UCN2, Urocortin 2]” here?
Answer: The value was “more than 10 fold”.

Question: And the “2DG Uptake, gastrocnemius muscle” value [1, 2]?
Answer: The value was 17.97 µmol/g/h and 16.61 µmol/g/h and 11.65 µmol/g/h and 22.6 µmol/g/h and 21.1 µmol/g/h and 20.95 µmol/g/h and 16.15 µmol/g/h and 12.85 µmol/g/h.

Question: What about the “2DG Uptake, soleus muscle” value [1, 2] of the same substance?
Answer: Its value is 25.34 µmol/g/h and 15.14 µmol/g/h and 16.51 µmol/g/h and 20.54 µmol/g/h and 24.42 µmol/g/h and 24.35 µmol/g/h and 25.91 µmol/g/h and 18.85 µmol/g/h.

Question: And the “2DG Uptake, gastrocnemius muscle” value [1, 3]?
Answer: Its value is 2.37 µmol/g/h and 2.36 µmol/g/h and 2.81 µmol/g/h and 1.95 µmol/g/h and 2.97 µmol/g/h and 3.08 µmol/g/h and 2.83 µmol/g/h and 3.26 µmol/g/h.

Question: What about the “2DG Uptake, soleus muscle” value [1, 3] of the same substance?
Answer: Its value is 2.44 µmol/g/h and 2.26 µmol/g/h and 2.42 µmol/g/h and 2.39 µmol/g/h and 2.31 µmol/g/h and 2.62 µmol/g/h and 3.69 µmol/g/h.

Question: What about the “Food Intake” value (mice; single IP dose 1 mg/kg UCN2, next 24 h, individual animals (Fig. 2K), 1 mg/kg) of the same substance?
Answer: The value was 0.27 g and 0.3 g and 0.24 g and 0.15 g and 0.38 g and 0.46 g and 0.59 g.

Question: And the “food intake following UCN2 dosing” value (mice; single dose 1 mg/kg IP)?
Answer: The value was “decrease in food intake”.
